biological target: T1, DLK (Homo sapiens, UniProt Q12852); experiment: DLK TR-FRET assay; format: biochemical; conditions: 5 nM GST-tagged DLK (catalytic domain amino acid 1-520), 40 nM HIS-tagged MKK4 K131M substrate, 30 μM ATP, 60 minutes
T1 construct: N-terminally GST-tagged DLK (catalytic domain amino acid 1-520) (Carna Bioscience); GST (N); purchased Carna Bioscience
T1 sequence (Q12852 1-520): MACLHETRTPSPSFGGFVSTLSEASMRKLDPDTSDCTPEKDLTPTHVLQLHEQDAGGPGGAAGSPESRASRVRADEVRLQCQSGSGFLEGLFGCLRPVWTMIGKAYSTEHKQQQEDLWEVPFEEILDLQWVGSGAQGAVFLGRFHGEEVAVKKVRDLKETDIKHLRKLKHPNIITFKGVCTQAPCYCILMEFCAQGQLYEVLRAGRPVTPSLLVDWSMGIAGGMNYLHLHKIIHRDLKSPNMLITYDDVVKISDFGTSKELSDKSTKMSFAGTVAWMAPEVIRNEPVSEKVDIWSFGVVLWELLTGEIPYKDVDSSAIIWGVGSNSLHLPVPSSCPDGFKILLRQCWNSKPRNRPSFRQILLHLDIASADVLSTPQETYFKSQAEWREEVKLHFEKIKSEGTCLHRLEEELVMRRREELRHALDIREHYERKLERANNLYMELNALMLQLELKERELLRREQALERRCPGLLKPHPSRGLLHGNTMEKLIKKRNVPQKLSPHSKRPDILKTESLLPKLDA
Method: DLK TR-FRET assay: DLK kinase reactions (20 μL) containing 5 nM N-terminally GST-tagged DLK (catalytic domain amino acid 1-520) (Carna Bioscience), 40 nM N-terminally HIS-tagged MKK4 K131M substrate, and 30 μM ATP in kinase reaction buffer (50 mM HEPES, pH 7.5, 0.01% Triton X-100, 0.01% Bovine γ-Globulins, 2 mM DTT, 10 mM MgCl2 and 1 mM EGTA), and testing compound 1:3 serial diluted starting at 20 uM were incubated at ambient temperature for 60 minutes in 384 well OptiPlate (Perkin Elmer). To quench kinase reactions and detect phosphorylated MKK4, 15 μL of TR-FRET antibody mixture containing 2 nM anti-phosphorylated MKK4 labeled with Europium cryptate (Cisbio) and 23 nM anti-HIS labeled with D2 (Cisbio) in detection buffer (25 mM Tris pH 7.5, 100 mM NaCl, 100 mM EDTA, 0.01% Tween-20, and 200 mM KF) was added to the reaction mixture. The detection mixture was incubated for 3 hours at ambient temperature and the TR-FRET was detected with an EnVision multilabel plate reader (Perkin-Elmer) using the LANCE/DELFIA Dual Enh label from Perkin-Elmer (excitation filter: UV2 (TRF) 320 and emission filters: APC 665 and Europium 615).

In order of falling Ki:
1. Cc1cc(C2CCOCC2)cc(Nc2cc(CN)ccn2)n1 [Example 113, (4-Aminomethyl-pyridin-2-yl)-[6-methyl-4-(tetrahydro-pyran-4-yl)-pyridin-2-yl]-amine]  1600 nM
2. Cc1ccnc(Nc2cc(C3CCN(C(=O)[C@@H]4CCCCN4)CC3)ccn2)c1 [Example 147, (S)-(4-(2-((4-methylpyridin-2-yl)amino)pyridin-4-yl)piperidin-1-yl)(piperidin-2-yl)methanone]  1200 nM
3. CS(=O)(=O)N1CCC(c2ccnc(Nc3cc(C#N)ccn3)c2)CC1 [Example 128, 2-(1′-Methanesulfonyl-1′,2′,3′,4′,5′,6′-hexahydro-[4,4′]bipyridinyl-2-ylamino)-isonicotinonitrile]  450 nM
4. Cc1cc(C2(C#N)CCOCC2)cc(Nc2cc(C#N)ccn2)n1 [Example 64, 2-[4-(4-Cyano-tetrahydro-pyran-4-yl)-6-methyl-pyridin-2-ylamino]-isonicotinonitrile]  170 nM
5. CC(=O)N1CCC(c2cc(C)nc(Nc3cc(C#N)ccn3)c2)CC1 [Example 108, 2-(1′-Acetyl-6-methyl-1′,2′,3′,4′,5′,6′-hexahydro[4,4′]bipyridinyl-2-ylamino)-isonicotinonitrile]  93 nM
6. Cc1cc(C2CCOCC2)cc(Nc2cc(C#N)ccn2)n1 [Example 80, 2-[6-Methyl-4-(tetrahydro-pyran-4-yl)-pyridin-2-ylamino]-isonicotinonitrile]  58 nM
7. CC(C)(C)OC(=O)N1CC(c2cc(Cl)nc(Nc3cc(C(F)F)ccn3)c2)C1 [Example 45, 3-[2-Chloro-6-(4-difluoromethyl-pyridin-2-ylamino)-pyridin-4-yl]-azetidine-1-carboxylic acid tert-butyl ester]  48 nM
8. N#CC1(c2cc(Cl)nc(Nc3cc(C(F)F)ccn3)c2)CCOCC1 [Example 66, 4-[2-Chloro-6-(4-difluoromethyl-pyridin-2-ylamino)-pyridin-4-yl]-tetrahydro-pyran-4-carbonitrile]  43 nM
9. N#Cc1ccnc(Nc2cc(C3CCN(C4COC4)CC3)cc(N3CCCC3=O)n2)c1 [Example 79, 2-[1′-Oxetan-3-yl-6-(2-oxo-pyrrolidin-1-yl)-1′,2′,3′,4′,5′,6′-hexahydro-[4,4′]bipyridinyl-2-ylamino]-isonicotinonitrile]  35 nM
10. CC(=O)N1CCC(c2cc(Cl)nc(Nc3cc(C#N)ccn3)c2)CC1 [Example 65, 2-(1′-Acetyl-6-chloro-1′,2′,3′,4′,5′,6′-hexahydro-[4,4′]bipyridinyl-2-ylamino)-isonicotinonitrile]  30 nM
11. COC1CN(c2cc(C3CCN(C4COC4)CC3)cc(Nc3cc(C(F)F)ccn3)n2)C1 [Example 48, (4-Difluoromethyl-pyridin-2-yl)-[6-(3-methoxy-azetidin-1-yl)-1′-oxetan-3-yl-1′,2′,3′,4′,5′,6′-hexahydro-[4,4′]bipyridinyl-2-yl]-amine]  21 nM
12. COC1CN(c2cc(C3(C#N)CCOCC3)cc(Nc3cc(C(F)F)ccn3)n2)C1 [Example 54, 4-[2-(4-Difluoromethyl-pyridin-2-ylamino)-6-(3-methoxy-azetidin-1-yl)-pyridin-4-yl]-tetrahydro-pyran-4-carbonitrile]  21 nM
13. N#Cc1ccnc(Nc2cc(C3CCN(C4COC4)CC3)cc(N3CC4(CCOC4)C3)n2)c1 [Example 93, 2-[6-(6-Oxa-2-aza-spiro[3.4]oct-2-yl)-1′-oxetan-3-yl-1′,2′,3′,4′,5′,6′-hexahydro-[4,4′]bipyridinyl-2-ylamino]-isonicotinonitrile]  20 nM
14. CCc1cc(C2CCN(C3COC3)CC2)cc(Nc2cc(C#N)ccn2)n1 [Example 29, 2-(6-Ethyl-1′-oxetan-3-yl-1′,2′,3′,4′,5′,6′-hexahydro-[4,4′]bipyridinyl-2-ylamino)-isonicotinonitrile]  18 nM
15. FC(F)c1ccnc(Nc2cc(C3CCN(C4COC4)CC3)cc(Cl)n2)c1 [Example 76, (6-Chloro-1′-oxetan-3-yl-1′,2′,3′,4′,5′,6′-hexahydro-[4,4′]bipyridinyl-2-yl)-(4-difluoromethyl-pyridin-2-yl)-amine]  16 nM
16. N#Cc1ccnc(Nc2cc(C3(C#N)CCOCC3)cc(N3CC(F)C3)n2)c1 [Example 46, 2-[4-(4-Cyano-tetrahydro-pyran-4-yl)-6-(3-fluoro-azetidin-1-yl)-pyridin-2-ylamino]-isonicotinonitrile]  13 nM
17. N#Cc1ccnc(Nc2cc(C3CCN(C4COC4)CC3)cc(Cl)n2)c1 [Example 106, 2-(6-Chloro-1′-oxetan-3-yl-1′,2′,3′,4′,5′,6′-hexahydro-[4,4′]bipyridinyl-2-ylamino)-isonicotinonitrile]  10 nM
18. N#CC1(c2cc(Nc3cc(C(F)F)ccn3)nc(N3CC(F)C3)c2)CCOCC1 [Example 55, 4-[2-(4-Difluoromethyl-pyridin-2-ylamino)-6-(3-fluoro-azetidin-1-yl)-pyridin-4-yl]-tetrahydro-pyran-4-carbonitrile]  8.9 nM
19. N#Cc1ccnc(Nc2cc(C3CCN(C4COC4)CC3)cc(N3CCC3)n2)c1 [Example 105, 2-(6-Azetidin-1-yl-1′-oxetan-3-yl-1′,2′,3′,4′,5′,6′-hexahydro-[4,4′]bipyridinyl-2-ylamino)-isonicotinonitrile]  7 nM
20. FC1CN(c2cc(C3CCN(C4COC4)CC3)cc(Nc3cc(C(F)F)ccn3)n2)C1 [Example 44, (4-Difluoromethyl-pyridin-2-yl)-[6-(3-fluoro-azetidin-1-yl)-1′-oxetan-3-yl-1′,2′,3′,4′,5′,6′-hexahydro-[4,4′]bipyridinyl-2-yl]-amine]  6.8 nM
21. C[C@@H]1CCCN1c1cc(C2CCN(S(C)(=O)=O)CC2)cc(Nc2cc(C(F)(F)F)ccn2)n1 [Example 139, [1′-Methanesulfonyl-6-((R)-2-methyl-pyrrolidin-1-yl)-1′,2′,3′,4′,5′,6′-hexahydro-[4,4′]bipyridinyl-2-yl]-(4-trifluoromethyl-pyridin-2-yl)-amine]  6.6 nM
22. N#Cc1ccnc(Nc2cc(C3(C#N)CCOCC3)cc(N3CC4CC(F)(F)C4C3)n2)c1 (centres unmarked) [Example 69, 2-[4-(4-Cyano-tetrahydro-pyran-4-yl)-6-(6,6-difluoro-3-aza-bicyclo[3.2.0]hept-3-yl)-pyridin-2-ylamino]-isonicotinonitrile]  4 nM
23. CCCCOc1cc(C2CCN(C3COC3)CC2)cc(Nc2cc(C(F)F)ccn2)n1 [Example 43, (6-Butoxy-1′-oxetan-3-yl-1′,2′,3′,4′,5′,6′-hexahydro-[4,4′]bipyridinyl-2-yl)-(4-difluoro-methyl-pyridin-2-yl)-amine]  3.8 nM
24. CC(=O)N1CCC(c2cc(Nc3cc(C#N)ccn3)nc(C3CC3)c2)CC1 [Example 59, 2-(1′-Acetyl-6-cyclopropyl-1′,2′,3′,4′,5′,6′-hexahydro-[4,4′]bipyridinyl-2-ylamino)-isonicotinonitrile]  1.5 nM
25. N#Cc1ccnc(Nc2cc(C3CCN(C4COC4)CC3)cc(N3CCC4CC43)n2)c1 (centres unmarked) [Example 99, 2-[6-(2-Aza-bicyclo[3.1.0]hex-2-yl)-1′-oxetan-3-yl-1′,2′,3′,4′,5′,6′-hexahydro-[4,4′]bipyridinyl-2-ylamino]-isonicotinonitrile]  0.9 nM
26. N#Cc1ccnc(Nc2cc(C3CCOCC3)cc(N3CCC(F)(F)C3)n2)c1 [Example 130, 2-[6-(3,3-Difluoro-pyrrolidin-1-yl)-4-(tetrahydro-pyran-4-yl)-pyridin-2-ylamino]-isonicotinonitrile]  0.88 nM
27. CC(=O)N1CCC(c2cc(Nc3cc(C#N)ccn3)nc(N3CCC[C@H]3C)c2)CC1 [Example 119, 2-[1′-Acetyl-6-((R)-2-methyl-pyrrolidin-1-yl)-1′,2′,3′,4′,5′,6′-hexahydro-[4,4′]bipyridinyl-2-ylamino]-isonicotinonitrile]  0.2 nM
28. C[C@@H]1CCCN1c1cc(C2CCN(CCF)CC2)cc(Nc2cc(C(F)(F)F)ccn2)n1 [Example 137, [1′-(2-Fluoro-ethyl)-6-((R)-2-methyl-pyrrolidin-1-yl)-1′,2′,3′,4′,5′,6′-hexahydro-[4,4′]bipyridinyl-2-yl]-(4-trifluoromethyl-pyridin-2-yl)-amine]  0.17 nM
29. C[C@@H]1CCCN1c1cc(C2(C#N)CCNCC2)cc(Nc2cc(C#N)ccn2)n1 [Example 39, 2′-(4-Cyano-pyridin-2-ylamino)-6′-((R)-2-methyl-pyrrolidin-1-yl)-2,3,5,6-tetrahydro-1H-[4,4′]bipyridinyl-4-carbonitrile]  0.17 nM
